The results in this text go back to patent EP0483631A1, “3-Oxy substituted isoxazolines, process for their preparation and their utilization against Endoparasites” (BAYER AG, priority 1990, dated 1992).

Assay [1] deals with Haemonchus contortus. Put plainly: In vivo nematode test, Haemonchus contortus / sheep (faecal count before and after treatment). Details: species or system Schaf. The conditions noted are these: experimentally infected sheep, treated after the prepatent period, pure active ingredient in gelatine capsules, oral, dose giving complete cessation of egg excretion, read-out: Dosis effectiva. An excerpt:
Haemonchus contortus / Schaf
Experimentell mit Haemonchus contortus infizierte Schafe wurden nach Ablauf der Präpatenzzeit des Parasiten behandelt. Die Wirkstoffe wurden als reiner Wirkstoff in Gelatinekapseln oral appliziert.
Der Wirkungsgrad wird dadurch bestimmt, daß man die mit dem Kot ausgeschiedenen […] vor und nach der Behandlung quantitativ auszählt.
(§1) Ein völliges Sistieren der Eiausscheidung nach der Behandlung bedeutet, daß die Würmer abgetrieben wurden oder so geschädigt sind, daß sie keine Eier mehr produzieren (Dosis effectiva).
Geprüfte Wirkstoffe und wirksame Dosierungen (Dosis effectiva) sind aus der nachfolgenden Tabelle ersichtlich: […]

Assay [2] deals with Trichostrongylus colubriformis. Put plainly: In vivo nematode test, Trichostrongylus colubriformis / sheep (faecal egg count before and after treatment). Details: species or system Schaf. The conditions noted are these: experimentally infected sheep, treated after the prepatent period, pure active ingredient in gelatine capsules, oral, dose giving complete cessation of egg excretion, read-out: Dosis effectiva.
Text: Trichostrongylus colubriformis / Schaf
Experimentell mit Trichostrongylus colubriformis infizierte Schafe wurden nach Ablauf der Präpatenzzeit des Parasiten behandelt. Die Wirkstoffe wurden als reiner Wirkstoff in Gelatinekapseln oral appliziert.
Der Wirkungsgrad wird dadurch bestimmt, daß man die mit dem Kot ausgeschiedenen Wurmeier vor und nach der Behandlung quantitativ auszählt.
as §1
Geprüfte Wirkstoffe und wirksame Dosierungen (Dosis effectiva) sind aus der nachfolgenden Tabelle ersichtlich.

As for `COC1=NOC[C@H]1NC(=O)c1ccccc1C(=O)O` [Beispiel 1, (R)-N-(4,5-Dihydro-3-methoxy-4-isoazolyl)-phthalamidsäure], the minimal effective dose was 10 mg/kg in assay [1] and 25 mg/kg in assay [2].

In the case of `O=C(O)c1ccccc1C(=O)N[C@@H]1CON=C1OCc1cccc(Cl)c1` [Beispiel 2, (R)-N-[4-5-Dihydro-3-(-3-chlorphenyl)-methoxy-4-isoxazolyl]-phthalamidsäure], the minimal effective dose was 10 mg/kg in assay [1] and 25 mg/kg in assay [2].

Turning to `CC(C)OC1=NOCC1NC(=O)c1ccccc1C(=O)O` (stereo not drawn) [Beispiel 3], the minimal effective dose worked out at 10 mg/kg in assay [1] and 25 mg/kg in assay [2].
